Measured values as given in patent US20120225061A1, “TETRASUBSTITUTED CYCLOHEXYL COMPOUNDS AS KINASE INHIBITORS” (priority 2011, published 2012).
Like-named read-outs stand apart in the source and are kept apart here.

Key:
Pim2 kinase [1] = biological target: T1, Pim2 kinase (Homo sapiens, UniProt Q9P1W9); test: KinaseGlo Pim2 ATP depletion assay; format: biochemical; conditions: Table 4, 5 nM PIM2, 4 μM ATP, 10 μM BAD peptide
Method: The activity of PIM2 is measured using a luciferase-luciferin based ATP detection reagent to quantify ATP depletion resulting from kinase-catalyzed phosphoryl transfer to a peptide substrate. Compounds to be tested are dissolved in 100% DMSO and directly distributed into white 384-well plates at 0.5 μl per well. […] After 15 minutes, 10 μl of 8 μM ATP in assay buffer is added. Final assay concentrations are 5 nM PIM2, 4 μM ATP, 10 μM BAD peptide and 2.5% DMSO. The reaction is performed until approximately 50% of the ATP is depleted, then stopped with the addition of 20 μl KinaseGlo Plus (Promega Corporation) solution. The stopped reaction is incubated for 10 minutes and the remaining ATP detected via luminescence on the Victor2 (Perkin Elmer).

[2] = tested on: KMS11 (human myeloma cell line); test: Cell proliferation assay (CellTiter-Glo) in KMS11 cells; format: cell-based; conditions: KMS-11, 72 h, read-out: KMS11-luc EC50
Method in brief: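 KMS11 cells at 2000 per well in IMDM/10% FBS were exposed to compound for 3 days. Viability was read by CellTiter-Glo luminescence.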

Pim1 kinase = Pim1 kinase (Homo sapiens, UniProt P11309); test: Pim1 AlphaScreen assay (high ATP)
Chain of Pim1 kinase (P11309 whole entry): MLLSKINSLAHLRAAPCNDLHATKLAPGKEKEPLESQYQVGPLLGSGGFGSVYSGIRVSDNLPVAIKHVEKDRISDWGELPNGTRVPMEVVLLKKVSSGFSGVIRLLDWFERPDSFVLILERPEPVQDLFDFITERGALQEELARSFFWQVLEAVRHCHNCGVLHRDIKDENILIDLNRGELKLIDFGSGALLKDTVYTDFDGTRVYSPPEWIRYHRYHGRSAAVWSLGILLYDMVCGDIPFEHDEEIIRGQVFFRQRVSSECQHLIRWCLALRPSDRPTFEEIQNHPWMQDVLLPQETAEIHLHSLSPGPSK

Pim2 kinase [3] = biological target: T1, Pim2 kinase; test: Pim2 AlphaScreen assay (high ATP)
Pim3 kinase = Pim3 kinase (Homo sapiens, UniProt Q86V86); test: Pim3 AlphaScreen assay (high ATP)

T1 sequence (Q9P1W9 whole entry): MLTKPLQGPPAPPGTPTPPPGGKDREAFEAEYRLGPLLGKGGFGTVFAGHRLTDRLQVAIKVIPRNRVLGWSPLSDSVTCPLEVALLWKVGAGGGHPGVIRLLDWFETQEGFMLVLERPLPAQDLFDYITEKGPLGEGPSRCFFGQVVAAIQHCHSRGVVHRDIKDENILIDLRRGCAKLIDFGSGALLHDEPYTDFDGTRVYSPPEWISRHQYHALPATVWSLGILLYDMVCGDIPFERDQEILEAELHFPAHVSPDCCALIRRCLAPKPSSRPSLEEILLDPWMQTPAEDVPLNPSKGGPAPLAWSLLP

Row | SMILES | IC50 (Pim2 kinase [1]) [nM] | EC50 ([2]; Table 4, 3 days) [nM] | EC50 ([2]; Table 5, 3 days) [nM] | IC50 (Pim1 kinase) [nM] | IC50 (Pim2 kinase [3]) [nM] | IC50 (Pim3 kinase) [nM]
1 | C[C@H]1C[C@@H](c2ccncc2NC(=O)c2nc(-c3ncccc3F)c(F)cc2N)C[C@@H](O)C1(C)O (stereo in doubt) [Example 130, 5-amino-N-(4-((1R,3R,4R,5S)-3,4-dihydroxy-4,5-dimethylcyclohexyl)pyridin-3-yl)-3,3′-difluoro-2,2′-bipyridine-6-carboxamide] | 8.8 | 8960 | 8960 | 9.82 | 2140 | 383
2 | C[C@@H]1C[C@H](c2ccncc2NC(=O)c2csc(-c3c(F)cccc3F)n2)C[C@H](N)[C@@]1(C)O [Example 25, N-(4-((1S,3S,4S,5R)-3-amino-4-hydroxy-4,5-dimethylcyclohexyl)pyridin-3-yl)-2-(2,6-difluorophenyl)thiazole-4-carboxamide] | 2010 |  |  | 111 | 8130 | 992
3 | C[C@H]1C[C@@H](c2ccncc2NC(=O)c2csc(-c3c(F)cccc3F)n2)C[C@@H](N)[C@]1(C)O [Example 26, N-(4-((1R,3R,4R,5S)-3-amino-4-hydroxy-4,5-dimethylcyclohexyl)pyridin-3-yl)-2-(2,6-difluorophenyl) thiazole-4-carboxamide] | 20.8 |  |  | 1.9 | 109 | 17.2
4 | C[C@H]1C[C@@H](c2ccncc2NC(=O)c2ccc(F)c(-c3c(F)cccc3F)n2)C[C@@H](N)[C@]1(C)O [Example 27, N-(4-((1R,3R,4R,5S)-3-amino-4-hydroxy-4,5-dimethylcyclohexyl)pyridin-3-yl)-6-(2,6-difluorophenyl)-5-fluoropicolinamide] | 3.8 | 140 | 138 | 0.11 | 5.73 | 0.99
5 | C[C@@H]1C[C@H](c2ccncc2NC(=O)c2ccc(F)c(-c3c(F)cccc3F)n2)C[C@H](N)[C@@]1(C)O [Example 28, N-(4-((1S,3S,4S,5R)-3-amino-4-hydroxy-4,5-dimethylcyclohexyl)pyridin-3-yl)-6-(2,6-difluorophenyl)-5-fluoropicolinamide] | 229 |  |  | 18.3 | 476 | 138
6 | C[C@@H]1C[C@H](c2ccncc2NC(=O)c2ccc(F)c(-c3c(F)cccc3F)n2)C[C@H](O)[C@]1(O)CF [Example 29, 6-(2,6-difluorophenyl)-5-fluoro-N-(4-((1S,3S,4S,5R)-4-(fluoromethyl)-3,4-dihydroxy-5-methylyclohexyl)pyridin-3-yl) picolinamide] | 14.9 | 3270 | 3270 | 6.7 | 428 | 201
7 | C[C@H]1C[C@@H](c2ccncc2NC(=O)c2ccc(F)c(-c3ccc(F)c(F)c3)n2)C[C@@H](O)[C@]1(C)O [Example 31, 6-(3,4-difluorophenyl)-N-(4-((1R,3R,4R,5S)-3,4-dihydroxy-4,5-dimethylcyclohexyl)pyridin-3-yl)-5-fluoropicolinamide] | 93.4 | ≥ 10000 | > 10000 | 215 | 22100 | 5480
8 | C[C@H]1C[C@@H](c2ccncc2NC(=O)c2ccc(F)c(-c3c(F)cc(OC4CCNCC4)cc3F)n2)C[C@@H](O)[C@]1(C)O [Example 112, 6-(2,6-difluoro-4-(piperidin-4-yloxy)phenyl)-N-(4-((1R,3R,4R,5S)-3,4-dihydroxy-4,5-dimethylcyclohexyl)pyridin-3-yl)-5-fluoropicolinamide] |  |  | 4150 | 0.11 | 56.5 | 18.3
9 | C[C@H]1C[C@@H](c2ccncc2NC(=O)c2ccc(F)c(-c3c(F)cc(C4(F)CCOCC4)cc3F)n2)C[C@@H](O)[C@]1(C)O [Example 113, 6-(2,6-difluoro-4-(4-fluorotetrahydro-2H-pyran-4-yl)phenyl)-N-(4-((1R,3R,4R,5S)-3,4-dihydroxy-4,5-dimethylcyclohexyl)pyridin-3-yl)-5-fluoropicolinamide] |  |  | 248 | 0.55 | 128 | 127
10 | C[C@H]1C[C@@H](c2ccncc2NC(=O)c2nc(-c3cccc(F)n3)c(F)cc2N)C[C@@H](O)[C@]1(C)O [Example 126, 5-amino-N-(4-((1R,3R,4R,5S)-3,4-dihydroxy-4,5-dimethylcyclohexyl)pyridin-3-yl)-3,6′-difluoro-2,2′-bipyridine-6-carboxamide] | 43.1 | 8030 | 8030 | 40.1 | 14200 | 3520
11 | CCOc1cccc(-c2ccc(N)c(C(=O)Nc3cnccc3[C@H]3C[C@@H](O)[C@](C)(O)[C@@H](C)C3)n2)n1 [Example 127, 5-amino-N-(4-((1R,3R,4R,5S)-3,4-dihydroxy-4,5-dimethylcyclohexyl)pyridin-3-yl)-6′-ethoxy-2,2′-bipyridine-6-carboxamide] | 20 | 1390 | 1390 | 11.9 | 9180 | 619
12 | Cc1cc(F)c(-c2nc(C(=O)Nc3cnccc3[C@H]3C[C@@H](N)[C@](C)(O)[C@@H](C)C3)c(N)cc2F)c(F)c1 [Example 146, 3-amino-N-(4-((1R,3R,4R,5S)-3-amino-4-hydroxy-4,5-dimethylcyclohexyl)pyridin-3-yl)-6-(2,6-difluoro-4-methylphenyl)-5-fluoropicolinamide] |  |  | 49 | 0.02 | 1.66 | 0.53

Further molecules by falling IC50 (Pim1 kinase), results first:

Row | IC50 (Pim2 kinase [1]) [nM] | EC50 ([2]; Table 4, 3 days) [nM] | EC50 ([2]; Table 5, 3 days) [nM] | IC50 (Pim1 kinase) [nM] | IC50 (Pim2 kinase [3]) [nM] | IC50 (Pim3 kinase) [nM] | SMILES
13 | 5.9 |  |  | 23.1 | 2140 | 601 | C[C@H]1C[C@@H](c2ccncc2NC(=O)c2nc(-c3nc(F)ccc3F)ccc2N)C[C@@H](O)[C@]1(C)O [Example 125, 5-amino-N-(4-((1R,3R,4R,5S)-3,4-dihydroxy-4,5-dimethylcyclohexyl)pyridin-3-yl)-3′,6′-difluoro-2,2′-bipyridine-6-carboxamide]
14 | 2.2 | 130 | 133 | 0.71 | 50.1 | 22.8 | C[C@H]1C[C@@H](c2ccncc2NC(=O)c2ccc(F)c(-c3c(F)cccc3F)n2)C[C@@H](O)[C@@]1(O)CF [Example 30, 6-(2,6-difluorophenyl)-5-fluoro-N-(4-((1R,3R,4R,5S)-4-(fluoromethyl)-3,4-dihydroxy-5-methylcyclohexyl)pyridin-3-yl) picolinamide]
15 |  |  | 924 | 0.34 | 21.7 | 6.93 | C[C@H]1C[C@@H](c2ccncc2NC(=O)c2nc(-c3c(F)cc(C(C)(C)O)cc3F)ccc2N)C[C@@H](O)[C@]1(C)O [Example 114, 3-amino-6-(2,6-difluoro-4-(2-hydroxypropan-2-yl)phenyl)-N-(4-((1R,3R,4R,5S)-3,4-dihydroxy-4,5-dimethylcyclohexyl)pyridin-3-yl)picolinamide]
16 |  |  | 310 | 0.18 | 104 | 32.8 | CCN1CCC(c2cc(F)c(-c3nc(C(=O)Nc4cnccc4[C@H]4C[C@@H](O)[C@](C)(O)[C@@H](C)C4)ccc3F)c(F)c2)CC1 [Example 115, N-(4-((1R,3R,4R,5S)-3,4-dihydroxy-4,5-dimethylcyclohexyl)pyridin-3-yl)-6-(4-(1-ethylpiperidin-4-yl)-2,6-difluorophenyl)-5-fluoropicolinamide]
17 |  |  | 539 | 0.07 | 3.57 | 1.61 | C[C@H]1C[C@@H](c2ccncc2NC(=O)c2ccc(F)c(-c3c(F)cc(OCC(F)(F)F)cc3F)n2)C[C@@H](N)[C@]1(C)O [Example 118, N-(4-((1R,3R,4R,5S)-3-amino-4-hydroxy-4,5-dimethylcyclohexyl)pyridin-3-yl)-6-(2,6-difluoro-4-(2,2,2-trifluoroethoxy)phenyl)-5-fluoropicolinamide]
18 |  |  | 32 | 0.04 | 2.37 | 0.53 | C[C@H]1C[C@@H](c2ccncc2NC(=O)c2nc(-c3c(F)cccc3F)c(F)cc2N)C[C@@H](N)[C@]1(C)O [Example 147, 3-amino-N-(4-((1R,3R,4R,5S)-3-amino-4-hydroxy-4,5-dimethylcyclohexyl)pyridin-3-yl)-6-(2,6-difluorophenyl)-5-fluoropicolinamide]
19 |  |  | 85 | 0.02 | 1.45 | 0.65 | C[C@H]1C[C@@H](c2ccncc2NC(=O)c2ccc(F)c(-c3c(F)cc(O[C@@H]4CCCOC4)cc3F)n2)C[C@@H](N)[C@]1(C)O [Example 148, N-(4-((1R,3R,4R,5S)-3-amino-4-hydroxy-4,5-dimethylcyclohexyl)pyridin-3-yl)-6-(2,6-difluoro-4-((R)-tetrahydro-2H-pyran-3-yloxy)phenyl)-5-fluoropicolinamide]
